The assay deals with BDF1 mice, P388 leukemia ip, median survival T/C. Description: NCI In Vivo Anticancer Drug Screen. Data for tumor model P388 Leukemia (intraperitoneal) in B6D2F1 (BDF1) mice. Particulars: endpoint: median survival time, higher = longer survival. In outline: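 Read-out is survival of treated animals expressed relative to the vehicle group, as a T/C ratio.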
Setting [1] is: dose: 12.5 mg/kg/injection, schedule: Q04DX003 (ip), vehicle: saline with Tween-80.
Setting [2] is: dose: 25.0 mg/kg/injection, schedule: Q04DX003 (ip), vehicle: Klucel (hydroxypropylcellulose) (HPC).
Where [3] appears, read: dose: 25.0 mg/kg/injection, schedule: Q04DX003 (ip), vehicle: saline with Tween-80.
Setting [4] is: dose: 50.0 mg/kg/injection, schedule: Q04DX003 (ip), vehicle: Klucel (hydroxypropylcellulose) (HPC).
The mark [5] stands for this setting: dose: 100.0 mg/kg/injection, schedule: Q04DX003 (ip), vehicle: Klucel (hydroxypropylcellulose) (HPC).

Structures are written as SMILES. Where “and” joins values, the source holds several entries; their conditions need not be identical. Equal values may be shown once. Toxic doses and inconclusive results are not listed.

`CCOC(=O)C1C(=O)C(CN(CCCl)CCCl)C(=O)C(C(=O)OCC)C1c1ccc(O)cc1` (stereo not drawn): the T/C runs as follows: (dose: 0.75 mg/kg/injection, schedule: Q01DX009 (ip), vehicle: Klucel (hydroxypropylcellulose) (HPC)) 180 % of control; (dose: 1.5 mg/kg/injection, schedule: Q01DX009 (ip), vehicle: Klucel (hydroxypropylcellulose) (HPC)) 190 % of control; (dose: 3.0 mg/kg/injection, schedule: Q01DX009 (ip), vehicle: Klucel (hydroxypropylcellulose) (HPC)) 183 % of control; (dose: 3.13 mg/kg/injection, schedule: Q04DX003 (ip), vehicle: saline with Tween-80) 153 % of control; (dose: 6.0 mg/kg/injection, schedule: Q01DX009 (ip), vehicle: Klucel (hydroxypropylcellulose) (HPC)) 266 % of control; (dose: 6.25 mg/kg/injection, schedule: Q01DX009 (ip), vehicle: Klucel (hydroxypropylcellulose) (HPC)) 185 % of control. Also, the T/C by setting is: (dose: 6.25 mg/kg/injection, schedule: Q04DX003 (ip), vehicle: Klucel (hydroxypropylcellulose) (HPC)) 180 % of control; (dose: 6.25 mg/kg/injection, schedule: Q04DX003 (ip), vehicle: saline with Tween-80) 160 % of control; (dose: 11.0 mg/kg/injection, schedule: Q01DX009 (ip), vehicle: Klucel (hydroxypropylcellulose) (HPC)) 209 % of control; (dose: 12.5 mg/kg/injection, schedule: Q01DX009 (ip), vehicle: Klucel (hydroxypropylcellulose) (HPC)) 269 % of control; (dose: 12.5 mg/kg/injection, schedule: Q04DX003 (ip), vehicle: Klucel (hydroxypropylcellulose) (HPC)) 195 % of control; under setting [1], 225 % of control. In addition, the T/C (dose: 16.5 mg/kg/injection, schedule: Q01DX009 (ip), vehicle: Klucel (hydroxypropylcellulose) (HPC)) was 232 % of control; the T/C (dose: 20.0 mg/kg/injection, schedule: Q04DX003 (ip), vehicle: Klucel (hydroxypropylcellulose) (HPC)) was 105 % of control; the T/C (dose: 25.0 mg/kg/injection, schedule: Q01DX009 (ip), vehicle: Klucel (hydroxypropylcellulose) (HPC)) is 243 % of control and 95 % of control and 190 % of control; the T/C under setting [2] is 182 % of control; the T/C under setting [3] is 260 % of control and 267 % of control; the T/C (dose: 37.5 mg/kg/injection, schedule: Q01DX009 (ip), vehicle: Klucel (hydroxypropylcellulose) (HPC)) is 103 % of control. For the same compound, the T/C is 89 % of control under setting [4]; 155 % of control (dose: 80.0 mg/kg/injection, schedule: Q04DX003 (ip), vehicle: Klucel (hydroxypropylcellulose) (HPC)); 160 % of control (dose: 118.0 mg/kg/injection, schedule: Q04DX003 (ip), vehicle: Klucel (hydroxypropylcellulose) (HPC)); 175 % of control (dose: 177.0 mg/kg/injection, schedule: Q04DX003 (ip), vehicle: Klucel (hydroxypropylcellulose) (HPC)); 159 % of control (dose: 200.0 mg/kg/injection, schedule: Q04DX003 (ip), vehicle: Klucel (hydroxypropylcellulose) (HPC)); 170 % of control (dose: 266.0 mg/kg/injection, schedule: Q04DX003 (ip), vehicle: Klucel (hydroxypropylcellulose) (HPC)). Moreover, the T/C (dose: 400.0 mg/kg/injection, schedule: Q04DX003 (ip), vehicle: Klucel (hydroxypropylcellulose) (HPC)) was 180 % of control and 195 % of control.
For the compound `O=C(CC(O)(C(F)(F)Cl)C(F)(F)Cl)c1cccs1`, the T/C is, setting by setting: (dose: 100.0 mg/kg/injection, schedule: Q01DX001 (ip), vehicle: saline with Tween-80) 95 % of control; (dose: 200.0 mg/kg/injection, schedule: Q01DX001 (ip), vehicle: saline with Tween-80) 100 % of control; (dose: 400.0 mg/kg/injection, schedule: Q01DX001 (ip), vehicle: saline with Tween-80) 100 % of control.
For the compound `CC[C@H](/C=C/[C@@H](C)[C@H]1CC[C@H]2[C@@H]3CC=C4C[C@@H](OC(=O)/C=C\C(=O)O)CC[C@]4(C)[C@H]3CC[C@]12C)C(C)C`, the T/C (dose: 6.25 mg/kg/injection, schedule: Q01DX009 (ip), vehicle: other) was 120 % of control; the T/C (dose: 12.5 mg/kg/injection, schedule: Q01DX009 (ip), vehicle: other) is 105 % of control; the T/C (dose: 18.75 mg/kg/injection, schedule: Q04DX003 (ip), vehicle: other) was 100 % of control; the T/C (dose: 25.0 mg/kg/injection, schedule: Q01DX009 (ip), vehicle: other) was 100 % of control; the T/C (dose: 37.5 mg/kg/injection, schedule: Q04DX003 (ip), vehicle: other) was 95 % of control; the T/C (dose: 75.0 mg/kg/injection, schedule: Q04DX003 (ip), vehicle: other) is 104 % of control.
For `OCCC[P+](c1ccccc1)(c1ccccc1)c1ccccc1`, the T/C is 113 % of control under setting [4] and 109 % of control under setting [5].
As to `C#CC[N+]1=CN(c2ccc(C)cc2)Cc2cc(C)ccc21`, the T/C by setting is: under setting [2], 105 % of control; (dose: 50.0 mg/kg/injection, schedule: Q01DX009 (ip), vehicle: Klucel (hydroxypropylcellulose) (HPC)) 122 % of control; under setting [4], 100 % of control; (dose: 100.0 mg/kg/injection, schedule: Q01DX009 (ip), vehicle: Klucel (hydroxypropylcellulose) (HPC)) 122 % of control; under setting [5], 95 % of control and 100 % of control and 109 % of control; (dose: 150.0 mg/kg/injection, schedule: Q04DX003 (ip), vehicle: Klucel (hydroxypropylcellulose) (HPC)) 100 % of control and 110 % of control. Also, the T/C (dose: 225.0 mg/kg/injection, schedule: Q04DX003 (ip), vehicle: Klucel (hydroxypropylcellulose) (HPC)) was 110 % of control.
On to `O=c1c2cc3nc4ccccn4c(=O)c3cc2nc2ccccn12`, for which the T/C runs as follows: (dose: 50.0 mg/kg/injection, schedule: Q01DX009 (ip), vehicle: saline with Tween-80) 91 % of control; (dose: 100.0 mg/kg/injection, schedule: Q01DX009 (ip), vehicle: saline with Tween-80) 86 % of control; (dose: 200.0 mg/kg/injection, schedule: Q01DX009 (ip), vehicle: saline with Tween-80) 91 % of control.
Consider `CC(=O)OC(CC(O)(C(F)(F)F)C(F)(F)F)C(C)(C)C` (stereo not drawn), for which the T/C runs as follows: under setting [1], 90 % of control; under setting [3], 90 % of control; (dose: 50.0 mg/kg/injection, schedule: Q04DX003 (ip), vehicle: saline with Tween-80) 90 % of control.
Turning to `C=C1C(=O)OCC2C(C(=O)O)=CC3C(C)C(C)=CC123` (stereo not drawn), the T/C is 105 % of control (dose: 2.5 mg/kg/injection, schedule: Q01DX009 (ip), vehicle: other); 117 % of control (dose: 5.0 mg/kg/injection, schedule: Q04DX003 (ip), vehicle: other); 105 % of control and 121 % of control (dose: 10.0 mg/kg/injection, schedule: Q01DX009 (ip), vehicle: Klucel (hydroxypropylcellulose) (HPC)); 111 % of control (dose: 10.0 mg/kg/injection, schedule: Q04DX003 (ip), vehicle: other); 117 % of control and 120 % of control (dose: 20.0 mg/kg/injection, schedule: Q01DX009 (ip), vehicle: Klucel (hydroxypropylcellulose) (HPC)); 124 % of control (dose: 20.0 mg/kg/injection, schedule: Q04DX003 (ip), vehicle: other). For the same compound, the T/C by setting is: (dose: 40.0 mg/kg/injection, schedule: Q01DX009 (ip), vehicle: Klucel (hydroxypropylcellulose) (HPC)) 121 % of control; (dose: 40.0 mg/kg/injection, schedule: Q04DX003 (ip), vehicle: other) 119 % of control.
Regarding `C=CC(COC(=O)C(C)(C)OC(C)=O)c1ccc(OC(=O)C(C)C)c(OC)c1` (stereo not drawn), the T/C (dose: 1.56 mg/kg/injection, schedule: Q01DX009 (ip), vehicle: saline) was 119 % of control; the T/C (dose: 3.13 mg/kg/injection, schedule: Q01DX009 (ip), vehicle: saline) was 100 % of control; the T/C (dose: 6.25 mg/kg/injection, schedule: Q01DX009 (ip), vehicle: saline) is 103 % of control; the T/C (dose: 12.5 mg/kg/injection, schedule: Q01DX009 (ip), vehicle: saline) was 100 % of control.
Take `CN=C(N)c1ccc(N=C(N)c2ccc(-c3ccc(C(N)=Nc4ccc(C(N)=NC)cc4)cc3)cc2)cc1`: the T/C is 118 % of control (dose: 3.0 mg/kg/injection, schedule: Q04DX003 (ip), vehicle: saline); 123 % of control (dose: 3.12 mg/kg/injection, schedule: Q01DX009 (ip), vehicle: saline); 121 % of control (dose: 5.5 mg/kg/injection, schedule: Q01DX009 (ip), vehicle: saline); 118 % of control (dose: 6.0 mg/kg/injection, schedule: Q04DX003 (ip), vehicle: saline); 122 % of control (dose: 12.0 mg/kg/injection, schedule: Q04DX003 (ip), vehicle: saline); 115 % of control (dose: 12.5 mg/kg/injection, schedule: Q04DX003 (ip), vehicle: saline). Moreover, the T/C (dose: 18.0 mg/kg/injection, schedule: Q01DX009 (ip), vehicle: saline) was 96 % of control.

The record behind these values is PubChem BioAssay AID328 (DTP/NCI, 2004).
